The subject of data set [1] is blastic cells from AML patients. Kind of data set: Inhibition of viability of fresh leukemic cells (trypan blue exclusion). In kind it is cell-based, human. Conditions: Homo sapiens, day 3; for cytotoxicity at 10 µM: 10^-5 M; for cytotoxicity at 1 µM: 10^-6 M. The gist of the method:
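Blasts from AML samples 1 to 5 (least to most differentiated) were incubated with or without anti-histamine derivatives, with Polaramine as negative control. Viable counts by trypan blue exclusion at day 3, with Wright-Giemsa morphology. Values are % growth inhibition versus negative control.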

Data set [2] has as its system U937. In kind it is in vivo. Conditions: treatment from day 1, cells inoculated after more than 24 hours, daily administration. The protocol: The second protocol was designed to test the preventive effects of the compounds of this invention on tumorigenesis. In this protocol, the animals have been treated with various compounds of the present invention on day 1. After more than 24 hours, tumoral cells were inoculated. The administration of the compounds of this invention was maintained daily. The cell line used for this test was U937.

Data set [3] has as its system K562, U937, MDA-DB231, BT20 and MCF7 cell lines. Kind of data set: Cytotoxic effects in multi-well plate, 6 days, ATP level (CellTiter-Glo). Conditions: 2x10^-9 M to 2x10^-4 M. As for the experimental part:
In order to test the cytotoxic effects of various compounds, a test was developed in a multi-well plate. Two leukemic cell lines, namely K562 and U937, and three breast cancer cell lines, namely MDA-DB231, BT20 and MCF7 were used for this test.
The cells were seeded at low density and were left for 24 hours to recover and reach a new logarithmic phase of growth. Various concentrations of the compounds being tested, ranging from 2×10^−9 M to 2×10^−4 M, were added in triplicate. The mixture was incubated for 6 days, during which approximately 4 doublings of the cell population occurred, to allow the cells to reach subconfluence.
The viability of the cultured cells after the treatment by the compounds was determined by quantifying the level of ATP since the level of ATP is directly proportional to the number of viable cells present in the culture. The ATP level was quantified by using CellTiter-Glo™ (Promega) luminescent test for cell viability.
(ATP-based viability assays read luminescence as a measure of living cells.)

For data set [4], the system named is U937 cells. Kind of data set: Curative effects on palpable tumors, U937 cells in scid/scid mice. Conditions: daily administration once tumors palpable (4 mm^3). In kind it is in vivo. As for the experimental part:
In this series of experiments, effects of various compounds of the present invention on tumor development were tested using two protocols. The first protocol is directed to the testing of curative effects of these compounds in different cell lines. In this protocol, cancerous cells are inoculated to the animals, and the inoculated animals were left without any further treatment until the development of tumors. As soon as the tumors became palable (4 mm^3), the compounds of this invention were administered daily to the animals. Two different cell lines, i.e., U937 and MDA-MB-231 (breast cancer line), were used for this protocol to inoculate scid/scid mice.

Data set [5] relates to TCTP. The experiment in a line: TCTP expression in treated U937 cells (western blot). In kind it is cell-based. Particulars: 24 hours, various dilutions. The protocol:
U937 cells were treated with various dilutions of hydroxyzine, brompheniramine and promethazine for 24 hours as denoted in FIG. 23A. Starting concentrations were: 50 mg/ml for […] (“A”); 10 mg/ml for brompheniramine (“B”); and 25 mg/ml for promethazine (“C”). The proteins were isolated from these cells and loaded onto a gel for western blot analysis. A specific anti-TCTP (anti-HRF) antibody was used to visualize the location of TCTP. […] The level of actin in equal loading of extract was visualized by antiactin antibody (Santa Cruz Biotechnology). No substantial difference between the level of actin in treated and untreated cells was observed.

For data set [6], the system named is K562, U937, Jurkat, T47-D, MCF7, BT20 and 184B5 cell lines. The experiment in a line: Cytotoxicity in malignant and immortalized cell lines (manual counting, Alamar assay). It is filed as cell-based. Particulars: all of the cell lines tested. As for the experimental part: These four compounds were added at different concentrations to cultures of various malignant cell lines and normal cells. The cell lines used for these tests were the following:
All leukemic cell lines were grown and used in logarithmic phase. After one day of treatment, the cells were isolated, counted and diluted in a regular growth medium to provide the cell density of about 75×10^3 cells/ml for reading on plates at 48 hours after the treatment, and […] for reading at 144 hours after the treatment.
Several dilutions of each compound tested were added to the wells (12 wells per plate, TPP), and 1 ml of cells from the parent solution was added per well after a line had been completed. The dilutions were made using the culture medium, and following dilutions were tested: control, which contained no compound of this invention; 1:100; 1:1,000; 1:2,000; 1:5,000; and 1:10,000. The starting concentrations for these dilutions were: 50 mg/ml for compound A; 10 mg/ml for compound B; 25 mg/ml for compound C; and 5 mg/ml for compound D. The results were analyzed by manual counting and Alamar reduced assay.
The cells were grown on their respective propagation medium and seeded 24 hours before the compounds are added. The cells were trypsinized, and 50,000 cells/well and 10,000 cells/well were seeded in order to read the plates at 48 hours and 144 hours after being treated by the compounds, respectively.
On the day of the treatment, the medium was replaced by 10 ml each of series dilution of the compounds, consisting of: control, which contained no compound of this invention; 1:100 dilution; 1:1,000 dilution; 1:2,000 dilution; and 1:5,000 dilution. The starting concentrations for these dilutions were: 50 mg/ml for compound A; 10 mg/ml for compound B; 25 mg/ml for compound C; and 5 mg/ml for compound D. The dilution was made using the growth medium.
A tested compound is regarded as being active in cytotoxicity where the percentage of surviving cells after the treatment with the compound is less than 30%.

Data set [7] relates to Poly ADP-Ribose Polymerase (PARP). Kind of data set: PARP cleavage in treated U937 cells (western blot). Particulars: 24 hours. In kind it is cell-based. The protocol: U937 cells were treated with various concentrations of hydroxyzine and promethazine for 24 hours. The proteins were isolated from these cells and loaded onto a gel for a western blot analysis. A specific anti-PARP antibody was used to visualize the location of PARP.

Where [8] appears, read: 72 h, MEAN over AML patients, read-out: In Vitro Percent Inhibition of Viability, MEAN.
The mark [9] stands for this setting: 72 h, patient ID 3, FAB AML2, read-out: In Vitro Percent Inhibition of Viability.
Setting [10] is: 72 h, patient ID 4, FAB AML2, read-out: In Vitro Percent Inhibition of Viability.
[11] abbreviates: 72 h, patient ID 5, FAB AML2, read-out: In Vitro Percent Inhibition of Viability.
Setting [12] is: 72 h, patient ID 10, FAB AML4, read-out: In Vitro Percent Inhibition of Viability.
The mark [13] stands for this setting: 72 h, patient ID 11, FAB AML5, read-out: In Vitro Percent Inhibition of Viability.
The mark [14] stands for this setting: 72 h, patient ID 13, FAB AML5, read-out: In Vitro Percent Inhibition of Viability.
The mark [15] stands for this setting: 72 h, patient ID 14, FAB AML5, read-out: In Vitro Percent Inhibition of Viability.
The mark [16] stands for this setting: 72 h, patient ID 15, FAB AML5, read-out: In Vitro Percent Inhibition of Viability.
[17] abbreviates: AML1, 72 h, patient ID 1, FAB AML1, read-out: In Vitro Percent Inhibition of Viability.
Setting [18] is: AML1, 72 h, patient ID 2, FAB AML1, read-out: In Vitro Percent Inhibition of Viability.
The mark [19] stands for this setting: AML3, 72 h, patient ID 6, FAB AML3, read-out: In Vitro Percent Inhibition of Viability.
Setting [20] is: AML3, 72 h, patient ID 7, FAB AML3, read-out: In Vitro Percent Inhibition of Viability.
Where [21] appears, read: AML3, 72 h, patient ID 8, FAB AML3, read-out: In Vitro Percent Inhibition of Viability.
[22] abbreviates: AML3, 72 h, patient ID 9, FAB AML3, read-out: In Vitro Percent Inhibition of Viability.

Counter-ions that a name gives are not always drawn. Like-named read-outs stand apart in the source and are kept apart here.

Consider `CN(C)CCCN1c2ccccc2Sc2ccc(Cl)cc21` [S59, chlorpromazine], for which the cytotoxicity at 10 µM turned out to be 37% in data set [1] (setting [8]); 48% in data set [1] (setting [9]); 22% in data set [1] (setting [10]); 37% in data set [1] (setting [11]); 51% in data set [1] (setting [12]); 25% in data set [1] (setting [13]). Also, the cytotoxicity at 10 µM in data set [1] (72 h, patient ID 12, FAB AML5, read-out: In Vitro Percent Inhibition of Viability) was 51%; in data set [1] (setting [14]) it was 31%; in data set [1] (setting [15]), 40%; in data set [1] (setting [16]), 20%; in data set [1] (setting [17]) it was 8%; in data set [1] (setting [18]), 35%. Further, the cytotoxicity at 10 µM turned out to be 24% in data set [1] (setting [19]), 53% in data set [1] (setting [20]), 44% in data set [1] (setting [21]) and 71% in data set [1] (setting [22]). For the same molecule, the cytotoxicity at 1 µM in data set [1] (setting [8]) was 15%; in data set [1] (setting [9]), 7%; in data set [1] (setting [10]), 9%; in data set [1] (setting [11]) it was 0%; in data set [1] (setting [12]), 33%; in data set [1] (setting [13]), 32%. In addition, the cytotoxicity at 1 µM was 13% in data set [1] (setting [14]); 38% in data set [1] (setting [15]); 17% in data set [1] (setting [16]); 8% in data set [1] (setting [17]); 5% in data set [1] (setting [18]); 13% in data set [1] (setting [19]). The values for the cytotoxicity at 1 µM in data set [1] (setting [20]), in data set [1] (setting [21]) and in data set [1] (setting [22]) were 3%, 14% and 11%, respectively. In addition, in data set [2], the “tumor growth compared to the negative control” value was “decrease in tumor growth”. Further, the cytotoxic effect group result in data set [3] was “I”. In addition, in data set [4], the tumor growth entry is recorded as “delay in the tumor growth”.

For `CN(C)CCC(c1ccc(Br)cc1)c1ccccn1` (stereo not shown) [brompheniramine, brompheniramine maleate], in data set [5], the “expression of TCTP” value is “little effect”. Also, the cytotoxic activity result in data set [6] is reported as “little or no cytotoxic activity”.

On to `CN[C@@H]1C[C@H]2O[C@@](C)([C@@H]1OC)n1c3ccccc3c3c4c(c5c6ccccc6n2c5c31)C(=O)NC4` [staurosporine], for which, in data set [7], the “PARP cleavage (induction of apoptosis)” value was “cleave PARP”.

For the origin of these results see patent US20040072824A1, “Methods and compositions for the treatment of cancer” (priority 2001, published 2004).
